Assay results from publication PMC12040169 (PLOS Biology, 2025).

Assay: in vitro
Conditions: human, hela cells, % viability

| Structure (SMILES) | viability at 28.5 h, 10 µM |
| --- | --- |
| Cc1cc(/C=C/C2=CCN(C)CC2)c(C)n1C1CC1 [CBK283858] | 85.9% |
| COc1ccc(/C=C/C2=CCN(C)CC2)cc1Cn1cccn1 [CBK283859] | 90.8% |
| CC(C(=O)NCCn1nc(-c2ccco2)ccc1=O)c1ccccc1 (stereo not shown) [CBK283861] | 93.6% |
| CC(C)C(=O)NCCn1nc(-c2ccco2)ccc1=O [CBK283863] | 97% |
| O=C(CN1C(=O)N2CCN=C2c2ccccc21)N1CCCCC1 [CBK283865] | 91.1% |
| O=C(O)Cc1cc2c(n1Cc1ccc(F)cc1)CCCC2=O [CBK283866] | 93.8% |
| O=c1n(Cc2ccccn2)c2cccnc2n1Cc1cccs1 [CBK283867] | 90.2% |
| CCn1cc(C(=O)N2CCCCC2c2nc3cc(C)ccc3[nH]2)cn1 (stereo not shown) [CBK283869] | 84.6% |
| Cc1ccc2c(c1)cc(C)c1nn(CC(=O)N3CCCCC3)c(=O)n12 [CBK283870] | 81.6% |
| Cc1ccc2c(c1)cc(C)c1nn(CC(=O)NC3CC3)c(=O)n12 [CBK283873] | 99.2% |
| Cc1cc(C)c2c(c1)cc(C)c1nn(CC(=O)N3CCCC3)c(=O)n12 [CBK283876] | 85.5% |
| Cc1cc2ccccc2n2c(=O)n(CC(=O)N3CCCCC3)nc12 [CBK283878] | 85.8% |
| CCN(CC)C(=O)Cn1nc2c(C)cc3ccccc3n2c1=O [CBK283879] | 84.1% |
| Cc1cc2ccccc2n2c(=O)n(CC(=O)N3CCC(C)CC3)nc12 [CBK283881] | 92.7% |
| Cc1cc2ccccc2n2c(=O)n(CC(=O)N3CCCCC3C)nc12 (stereo not shown) [CBK283882] | 87.1% |
| Cc1cc2ccccc2n2c(=O)n(CC(=O)N3CCCCCC3)nc12 [CBK283883] | 82.3% |
| Cc1cc2ccccc2n2c(=O)n(CC(=O)N(C(C)C)C(C)C)nc12 [CBK283885] | 87.1% |
| COCCn1c(=O)n(Cc2ccc(F)cc2)c2cccnc21 [CBK283886] | 81% |
| O=C(NCCCn1ccnc1)c1ncoc1-c1ccccc1 [CBK283887] | 99% |

| Structure (SMILES) | viability at 28.5 h, 10 µM |
| --- | --- |
| O=C(NC1CN2CCC1CC2)c1ncoc1-c1ccccc1 (stereo not shown) [CBK283888] | 104% |
| CCn1c(=O)n(CC(=O)NCc2ccccc2F)c2cccnc21 [CBK283890] | 86.8% |
| CCn1c(=O)n(CC(=O)NCc2cccc(F)c2)c2cccnc21 [CBK283891] | 86.4% |
| O=C(c1cc(F)cc(F)c1)N1CCC(c2cccnc2)CC1 [CBK283892] | 87.5% |
| O=C(Cn1c(=O)n(Cc2cccs2)c2ncccc21)N1CCCC1 [CBK283894] | 83.6% |
| CCn1c(=O)n(CC(=O)N2CCC(C)CC2)c2cccnc21 [CBK283895] | 95.9% |
| CCn1c(=O)n(CC(=O)N2CCCCC2C)c2cccnc21 (stereo not shown) [CBK283896] | 103% |
| CCn1c(=O)n(CC(=O)Nc2ccccc2F)c2cccnc21 [CBK283897] | 102% |
| O=C(Cn1c(=O)n(Cc2cccs2)c2ncccc21)NC1CC1 [CBK283898] | 90.6% |
| O=C(Cn1c(=O)n(Cc2cccs2)c2ncccc21)NCC1CC1 [CBK283899] | 89.3% |
| CC(C)NC(=O)Cn1c(=O)n(Cc2cccs2)c2ncccc21 [CBK283900] | 83.6% |
| O=c1n(Cc2cccnc2)c2cccnc2n1Cc1cccs1 [CBK283903] | 89.7% |
| CN(C)C(=O)Cn1nc(-c2cc3c(s2)CCCC3)oc1=O [CBK283905] | 98% |
| O=C1NC2(CCN(C(=O)C(F)(F)F)CC2)Oc2ccccc21 [CBK283906] | 94% |
| Cn1c(=O)n(CC(=O)NCc2cccs2)c2cccnc21 [CBK283907] | 90.3% |
| Cn1c(=O)n(CC(=O)NCc2ccccc2F)c2cccnc21 [CBK283909] | 88.1% |
| O=C(C1=Cc2ccccc2OC1)N1CCn2cc(C(F)(F)F)nc2C1 [CBK283913] | 103% |
| O=C(c1ccc(CO)o1)N1CCn2cc(C(F)(F)F)nc2C1 [CBK283914] | 94% |
